Source: patent publication US20110218103A1, “Fluoroalkyl-substituted 2-amidobenzimidazoles” (BAYER CROPSCIENCE AG, priority 2010, published 2011)

Experiments:
Assay in all cases: Drought stress test on crop plants, spray application in greenhouse, visual damage rating
Type in all cases: in vivo
Conditions in all cases: mean of three results
[1] = test system: Hordeum vulgare (HORVS)
Description: Seeds of monocotyledonous and dicotyledonous crop plants were placed in sandy loam in wood-fiber pots, covered with soil and cultivated in a greenhouse under good growth conditions. The test plants were treated at the early leaf stage (BBCH10-BBCH13). To ensure uniform water supply before commencement of stress, the potted plants were supplied with the maximum amount of water immediately beforehand by dam irrigation and, after application, transferred in plastic inserts in order to prevent subsequent, excessively rapid drying. The inventive compounds, formulated in the form of wettable powders (WP), wettable granules (WG), suspension concentrates (SC) or emulsion concentrates (EC), were sprayed onto the green parts of the plants as an aqueous suspension at an equivalent water application rate of 600 l/ha with addition of 0.2% wetting agent (agrotin). Substance application was followed immediately by stress treatment of the plants (cold or drought stress). For cold stress treatment, the plants were kept under the following controlled conditions: Drought stress was induced by gradual drying out under the following conditions: “day”: 14 hours with illumination at 26° C. “night”: 10 hours without illumination at 18° C. The duration of the respective stress phases was guided mainly by the state of the untreated, stressed control plants and thus varies from crop to crop. It was ended (by re-irrigating or transfer to a greenhouse with good growth conditions) as soon as irreversible damage is observed on the untreated, stressed control plants. In the case of dicotyledonous crops, for example oilseed rape and soya, the duration of the drought stress phase was between 3 and 5 days, in the case of monocotyledonous crops, for example wheat, barley or corn, between 6 and 10 days. The duration of the cold stress phase varied between 12 and 14 days. The end of the stress phase was followed by an approx. 5-7-day recovery phase, during which the plants were once again kept under good growth conditions in a greenhouse. In order to rule out any influence of the effects observed by any fungicidal action of the test compounds, it was additionally ensured that the tests proceed without fungal infection and without infection pressure. After the recovery phase had ended, the intensities of damage were rated visually compared to untreated, unstressed controls of the same age (in the case of drought stress) or the same growth stage (in the case of cold stress). The intensity of damage was first assessed as a percentage (100%=plants have died, 0%=like control plants). These values were then used to calculate the efficacy of the test compounds (=percentage reduction in the intensity of damage as a result of substance application) by the following formula: [formula] EF: efficacy (%) DVus: damage value of the untreated, stressed control DVts: damage value of the plants treated with test compound The tables below list mean values in each case from three results of the same test. Effects of selected compounds of the formula (I) under drought stress: HORVS=Hordeum vulgare

[2] = test system: Brassica napus (BRSNS)
Description: Seeds of monocotyledonous and dicotyledonous crop plants were placed in sandy loam in wood-fiber pots, covered with soil and cultivated in a greenhouse under good growth conditions. The test plants were treated at the early leaf stage (BBCH10-BBCH13). To ensure uniform water supply before commencement of stress, the potted plants were supplied with the maximum amount of water immediately beforehand by dam irrigation and, after application, transferred in plastic inserts in order to prevent subsequent, excessively rapid drying. The inventive compounds, formulated in the form of wettable powders (WP), wettable granules (WG), suspension concentrates (SC) or emulsion concentrates (EC), were sprayed onto the green parts of the plants as an aqueous suspension at an equivalent water application rate of 600 l/ha with addition of 0.2% wetting agent (agrotin). Substance application was followed immediately by stress treatment of the plants (cold or drought stress). For cold stress treatment, the plants were kept under the following controlled conditions: Drought stress was induced by gradual drying out under the following conditions: “day”: 14 hours with illumination at 26° C. “night”: 10 hours without illumination at 18° C. The duration of the respective stress phases was guided mainly by the state of the untreated, stressed control plants and thus varies from crop to crop. It was ended (by re-irrigating or transfer to a greenhouse with good growth conditions) as soon as irreversible damage is observed on the untreated, stressed control plants. In the case of dicotyledonous crops, for example oilseed rape and soya, the duration of the drought stress phase was between 3 and 5 days, in the case of monocotyledonous crops, for example wheat, barley or corn, between 6 and 10 days. The duration of the cold stress phase varied between 12 and 14 days. The end of the stress phase was followed by an approx. 5-7-day recovery phase, during which the plants were once again kept under good growth conditions in a greenhouse. In order to rule out any influence of the effects observed by any fungicidal action of the test compounds, it was additionally ensured that the tests proceed without fungal infection and without infection pressure. After the recovery phase had ended, the intensities of damage were rated visually compared to untreated, unstressed controls of the same age (in the case of drought stress) or the same growth stage (in the case of cold stress). The intensity of damage was first assessed as a percentage (100%=plants have died, 0%=like control plants). These values were then used to calculate the efficacy of the test compounds (=percentage reduction in the intensity of damage as a result of substance application) by the following formula: [formula] EF: efficacy (%) DVus: damage value of the untreated, stressed control DVts: damage value of the plants treated with test compound The tables below list mean values in each case from three results of the same test. Effects of selected compounds of the formula (I) under drought stress: BRSNS=Brassica napus

[3] = test system: Triticum aestivum (TRZAS)
Description: Seeds of monocotyledonous and dicotyledonous crop plants were placed in sandy loam in wood-fiber pots, covered with soil and cultivated in a greenhouse under good growth conditions. The test plants were treated at the early leaf stage (BBCH10-BBCH13). To ensure uniform water supply before commencement of stress, the potted plants were supplied with the maximum amount of water immediately beforehand by dam irrigation and, after application, transferred in plastic inserts in order to prevent subsequent, excessively rapid drying. The inventive compounds, formulated in the form of wettable powders (WP), wettable granules (WG), suspension concentrates (SC) or emulsion concentrates (EC), were sprayed onto the green parts of the plants as an aqueous suspension at an equivalent water application rate of 600 l/ha with addition of 0.2% wetting agent (agrotin). Substance application was followed immediately by stress treatment of the plants (cold or drought stress). For cold stress treatment, the plants were kept under the following controlled conditions: Drought stress was induced by gradual drying out under the following conditions: “day”: 14 hours with illumination at 26° C. “night”: 10 hours without illumination at 18° C. The duration of the respective stress phases was guided mainly by the state of the untreated, stressed control plants and thus varies from crop to crop. It was ended (by re-irrigating or transfer to a greenhouse with good growth conditions) as soon as irreversible damage is observed on the untreated, stressed control plants. In the case of dicotyledonous crops, for example oilseed rape and soya, the duration of the drought stress phase was between 3 and 5 days, in the case of monocotyledonous crops, for example wheat, barley or corn, between 6 and 10 days. The duration of the cold stress phase varied between 12 and 14 days. The end of the stress phase was followed by an approx. 5-7-day recovery phase, during which the plants were once again kept under good growth conditions in a greenhouse. In order to rule out any influence of the effects observed by any fungicidal action of the test compounds, it was additionally ensured that the tests proceed without fungal infection and without infection pressure. After the recovery phase had ended, the intensities of damage were rated visually compared to untreated, unstressed controls of the same age (in the case of drought stress) or the same growth stage (in the case of cold stress). The intensity of damage was first assessed as a percentage (100%=plants have died, 0%=like control plants). These values were then used to calculate the efficacy of the test compounds (=percentage reduction in the intensity of damage as a result of substance application) by the following formula: [formula] EF: efficacy (%) DVus: damage value of the untreated, stressed control DVts: damage value of the plants treated with test compound The tables below list mean values in each case from three results of the same test. Effects of selected compounds of the formula (I) under drought stress: TRZAS=Triticum aestivum

[4] = test system: Zea mays (ZEAMX)
Description: Seeds of monocotyledonous and dicotyledonous crop plants were placed in sandy loam in wood-fiber pots, covered with soil and cultivated in a greenhouse under good growth conditions. The test plants were treated at the early leaf stage (BBCH10-BBCH13). To ensure uniform water supply before commencement of stress, the potted plants were supplied with the maximum amount of water immediately beforehand by dam irrigation and, after application, transferred in plastic inserts in order to prevent subsequent, excessively rapid drying. The inventive compounds, formulated in the form of wettable powders (WP), wettable granules (WG), suspension concentrates (SC) or emulsion concentrates (EC), were sprayed onto the green parts of the plants as an aqueous suspension at an equivalent water application rate of 600 l/ha with addition of 0.2% wetting agent (agrotin). Substance application was followed immediately by stress treatment of the plants (cold or drought stress). For cold stress treatment, the plants were kept under the following controlled conditions: Drought stress was induced by gradual drying out under the following conditions: “day”: 14 hours with illumination at 26° C. “night”: 10 hours without illumination at 18° C. The duration of the respective stress phases was guided mainly by the state of the untreated, stressed control plants and thus varies from crop to crop. It was ended (by re-irrigating or transfer to a greenhouse with good growth conditions) as soon as irreversible damage is observed on the untreated, stressed control plants. In the case of dicotyledonous crops, for example oilseed rape and soya, the duration of the drought stress phase was between 3 and 5 days, in the case of monocotyledonous crops, for example wheat, barley or corn, between 6 and 10 days. The duration of the cold stress phase varied between 12 and 14 days. The end of the stress phase was followed by an approx. 5-7-day recovery phase, during which the plants were once again kept under good growth conditions in a greenhouse. In order to rule out any influence of the effects observed by any fungicidal action of the test compounds, it was additionally ensured that the tests proceed without fungal infection and without infection pressure. After the recovery phase had ended, the intensities of damage were rated visually compared to untreated, unstressed controls of the same age (in the case of drought stress) or the same growth stage (in the case of cold stress). The intensity of damage was first assessed as a percentage (100%=plants have died, 0%=like control plants). These values were then used to calculate the efficacy of the test compounds (=percentage reduction in the intensity of damage as a result of substance application) by the following formula: [formula] EF: efficacy (%) DVus: damage value of the untreated, stressed control DVts: damage value of the plants treated with test compound The tables below list mean values in each case from three results of the same test. Effects of selected compounds of the formula (I) under drought stress: ZEAMX=Zea mays

NC(=O)c1cccc2[nH]c(C(F)(F)Cl)nc12 [1-1, 2-[chloro(difluoro)methyl]-1H-benzimidazole-4-carboxamide]
EF (HORVS), efficacy = percentage reduction in the intensity of damage ([1]; 100 g/ha): >5%

CCCCS(CCCC)=NC(=O)c1cccc2[nH]c(C(F)(F)F)nc12 [1-5, N-(dibutyl-lambda^4-sulfanylidene)-2-(trifluoromethyl)-1H-benzimidazole-4-carboxamide]
EF (BRSNS), efficacy = percentage reduction in the intensity of damage ([2]; 25 g/ha): >5%
EF (TRZAS), efficacy = percentage reduction in the intensity of damage ([3]; 250 g/ha): >5%
EF (ZEAMX), efficacy = percentage reduction in the intensity of damage ([4]; 50 g/ha): >5%

COC(F)(F)c1nc2c(C(N)=O)cccc2[nH]1 [1-6, 2-[difluoro(methoxy)methyl]-1H-benzimidazole-4-carboxamide]
EF (BRSNS), efficacy = percentage reduction in the intensity of damage ([2]; 25 g/ha): >5%
EF (TRZAS), efficacy = percentage reduction in the intensity of damage ([3]; 25 g/ha): >5%
EF (ZEAMX), efficacy = percentage reduction in the intensity of damage ([4]; 25 g/ha): >5%

NC(=O)c1cccc2[nH]c(C(F)C(F)(F)F)nc12 (stereo not drawn) [1-8]
EF (BRSNS), efficacy = percentage reduction in the intensity of damage ([2]; 50 g/ha): >5%
EF (HORVS), efficacy = percentage reduction in the intensity of damage ([1]; 50 g/ha): >5%
EF (ZEAMX), efficacy = percentage reduction in the intensity of damage ([4]; 25 g/ha): >5%

CC(C)NC(=O)c1cccc2[nH]c(C(F)(F)F)nc12 [1-21]
EF (HORVS), efficacy = percentage reduction in the intensity of damage ([1]; 25 g/ha): >5%

Cn1c(C(F)(F)F)nc2c(C(N)=O)cccc21 [1-27]
EF (HORVS), efficacy = percentage reduction in the intensity of damage ([1]; 100 g/ha): >5%

CCCCOC(F)(F)c1nc2c(C(N)=O)cccc2[nH]1 [1-50]
EF (BRSNS), efficacy = percentage reduction in the intensity of damage ([2]; 25 g/ha): >5%
EF (TRZAS), efficacy = percentage reduction in the intensity of damage ([3]; 250 g/ha): >5%
EF (ZEAMX), efficacy = percentage reduction in the intensity of damage ([4]; 250 g/ha): >5%

COCCOC(F)(F)c1nc2c(C(N)=O)cccc2[nH]1 [1-52]
EF (BRSNS), efficacy = percentage reduction in the intensity of damage ([2]; 25 g/ha): >5%
EF (TRZAS), efficacy = percentage reduction in the intensity of damage ([3]; 25 g/ha): >5%
EF (ZEAMX), efficacy = percentage reduction in the intensity of damage ([4]; 25 g/ha): >5%

CCCCn1c(C(F)(F)F)nc2c(C(N)=O)cccc21 [1-69]
EF (BRSNS), efficacy = percentage reduction in the intensity of damage ([2]; 25 g/ha): >5%
EF (TRZAS), efficacy = percentage reduction in the intensity of damage ([3]; 25 g/ha): >5%

NC(=O)c1cccc2[nH]c(C(F)(F)OCC3CC3)nc12 [1-84]
EF (ZEAMX), efficacy = percentage reduction in the intensity of damage ([4]; 25 g/ha): >5%

C=CCCOC(F)(F)c1nc2c(C(N)=O)cccc2[nH]1 [1-89]
EF (BRSNS), efficacy = percentage reduction in the intensity of damage ([2]; 250 g/ha): >5%
EF (ZEAMX), efficacy = percentage reduction in the intensity of damage ([4]; 250 g/ha): >5%

CCC(C)COC(F)(F)c1nc2c(C(N)=O)cccc2[nH]1 (stereo not drawn) [1-90]
EF (TRZAS), efficacy = percentage reduction in the intensity of damage ([3]; 250 g/ha): >5%
EF (ZEAMX), efficacy = percentage reduction in the intensity of damage ([4]; 250 g/ha): >5%

NC(=O)c1cc(Cl)cc2[nH]c(C(F)F)nc12 [2-7]
EF (BRSNS), efficacy = percentage reduction in the intensity of damage ([2]; 25 g/ha): >5%
EF (TRZAS), efficacy = percentage reduction in the intensity of damage ([3]; 25 g/ha): >5%
EF (HORVS), efficacy = percentage reduction in the intensity of damage ([1]; 25 g/ha): >5%

Cc1cc(C(N)=O)c2nc(C(F)F)[nH]c2c1 [4-7]
EF (BRSNS), efficacy = percentage reduction in the intensity of damage ([2]; 25 g/ha): >5%
EF (TRZAS), efficacy = percentage reduction in the intensity of damage ([3]; 25 g/ha): >5%
EF (HORVS), efficacy = percentage reduction in the intensity of damage ([1]; 25 g/ha): >5%

NC(=O)c1cc(F)cc2[nH]c(C(F)C(F)(F)F)nc12 (stereo not drawn) [5-8]
EF (BRSNS), efficacy = percentage reduction in the intensity of damage ([2]; 250 g/ha): >5%
EF (TRZAS), efficacy = percentage reduction in the intensity of damage ([3]; 25 g/ha): >5%
